{
  "source": "patent US20060069132A1",
  "about": "“Azolecarboxamide herbicides” (priority 2004, published 2006)",
  "key": {"pigweed": {"test_system": "pigweed", "experiment": "Test B pre-/postemergence herbicide test", "type": "in vivo, Amaranthus retroflexus", "summary_of_the_method": "(§1)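 Formulation: non-phytotoxic solvent mix with surfactant. Timing: preemergence on seed and postemergence on 2–18 cm plants, applied concurrently. Readout after 13–15 d greenhouse: visual 0–100 control rating against controls.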"}, "barnyardgrass [1]": {"test_system": "barnyardgrass", "experiment": "Test B flooded paddy test", "type": "in vivo, Echinochloa crus-galli", "conditions": "1000 g ai/ha, visual rating, scale 0 to 100 (0 no effect, 100 complete control), 13 to 15 days", "summary_of_the_method": "(§2)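 Scale 0–100: zero equals no visible effect, 100 complete control, judged by eye relative to controls. Timing: 13 to 15 days in greenhouse post-treatment. Growth stage at spraying: two leaves (paddy) or one to four leaves, 2–18 cm (postemergence).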"}, "wheat": {"test_system": "wheat", "experiment": "Test B postemergence herbicide test", "type": "in vivo, Triticum aestivum", "parameters": "key to Wheat plant response rating: 0 = no effect, 100 = complete control", "conditions": "scale 0 (no effect) to 100 (complete control)", "summary_of_the_method": "(§3)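 Greenhouse test; postemergence application to plants at 1–4 leaves (2–18 cm); paddy species at 2 leaves; evaluated visually vs controls at 13–15 days; scale 0–100 (100 = complete control).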"}, "Surinam grass": {"test_system": "Surinam grass", "experiment": "Test B pre-/postemergence herbicide test", "type": "in vivo, Urochloa decumbens", "summary_of_the_method": "as §1"}, "giant foxtail": {"test_system": "giant foxtail", "experiment": "Test B pre-/postemergence herbicide test", "type": "in vivo, Setaria faberi", "summary_of_the_method": "as §1"}, "blackgrass": {"test_system": "blackgrass", "experiment": "Test B postemergence herbicide test", "type": "in vivo, Alopecurus myosuroides", "conditions": "scale 0 (no effect) to 100 (complete control)", "summary_of_the_method": "as §2"}, "corn": {"test_system": "corn", "experiment": "Test B pre-/postemergence herbicide test", "type": "in vivo, Zea mays", "summary_of_the_method": "as §1"}, "rice": {"test_system": "rice", "experiment": "Test B flooded paddy test", "type": "in vivo, Oryza sativa", "conditions": "1000 g ai/ha, visual rating, scale 0 to 100 (0 no effect, 100 complete control), 13 to 15 days", "summary_of_the_method": "as §2"}, "barnyardgrass [2]": {"test_system": "barnyardgrass", "experiment": "Test B pre-/postemergence herbicide test", "type": "in vivo, Echinochloa crus-galli", "summary_of_the_method": "as §1"}, "large crabgrass": {"test_system": "large crabgrass", "experiment": "Test B pre-/postemergence herbicide test", "type": "in vivo, Digitaria sanguinalis", "summary_of_the_method": "as §1"}, "velvetleaf": {"test_system": "velvetleaf", "experiment": "Test B pre-/postemergence herbicide test", "type": "in vivo, Abutilon theophrasti", "summary_of_the_method": "as §1"}, "ducksalad": {"test_system": "ducksalad", "experiment": "Test B flooded paddy test", "type": "in vivo, Heteranthera limosa", "conditions": "1000 g ai/ha, visual rating, scale 0 to 100 (0 no effect, 100 complete control), 13 to 15 days", "summary_of_the_method": "as §2"}, "[3]": {"test_system": "small flower umbrella sedge", "experiment": "Test B flooded paddy test", "type": "in vivo, Cyperus difformis", "conditions": "1000 g ai/ha, visual rating, scale 0 to 100 (0 no effect, 100 complete control), 13 to 15 days", "summary_of_the_method": "as §2"}, "wild oat": {"test_system": "wild oat", "experiment": "Test B postemergence herbicide test", "type": "in vivo, Avena fatua", "conditions": "scale 0 (no effect) to 100 (complete control)", "summary_of_the_method": "as §3"}, "morningglory": {"test_system": "morningglory", "experiment": "Test B pre-/postemergence herbicide test", "type": "in vivo, Ipomoea coccinea", "summary_of_the_method": "as §1"}, "[4]": {"conditions": "Postemergence, 500 g ai/ha, visual rating after 13 to 15 days, scale 0 (no effect) to 100 (complete control)"}, "[5]": {"conditions": "Preemergence, 500 g ai/ha, scale 0 to 100"}, "[6]": {"conditions": "postemergence, 125 g ai/ha, visual rating, scale 0 (no effect) to 100 (complete control)"}, "[7]": {"conditions": "preemergence, 125 g ai/ha, 0 to 100 scale, 0 is no effect, 100 is complete control"}, "[8]": {"conditions": "Postemergence, 500 g ai/ha, visual rating after 13 to 15 days"}, "[9]": {"conditions": "postemergence, 125 g ai/ha, visual rating"}},
  "data": [
    {"molecule": "CCCn1nc(C(C)(C)C)cc1C(=O)Nc1cccc(C(=O)NCC)c1", "note": "[Compound 57]", "values": [
      {"measurement": "Plant response rating, Pigweed", "setting": "pigweed; [4]", "value": 80},
      {"measurement": "Pigweed plant response rating", "setting": "pigweed; [5]", "value": 100},
      {"measurement": "Pigweed plant response rating", "setting": "pigweed; [6]", "value": 70},
      {"measurement": "Plant response rating, Pigweed", "setting": "pigweed; [7]", "value": 90},
      {"measurement": "Barnyardgrass plant response rating", "setting": "barnyardgrass [1]", "value": 60},
      {"measurement": "Plant response rating, Wheat", "setting": "wheat; [8]", "value": 10},
      {"measurement": "Wheat plant response rating", "setting": "wheat; [9]", "value": 10},
      {"measurement": "Plant response rating, Surinam Grass", "setting": "Surinam grass; [4]", "value": 20},
      {"measurement": "Surinam Grass plant response rating", "setting": "Surinam grass; [5]", "value": 40},
      {"measurement": "Surinam Grass plant response rating", "setting": "Surinam grass; [6]", "value": 10},
      {"measurement": "Plant response rating, Surinam Grass", "setting": "Surinam grass; [7]", "value": 20},
      {"measurement": "Plant response rating, Foxtail, Giant", "setting": "giant foxtail; [4]", "value": 30},
      {"measurement": "Foxtail, Giant plant response rating", "setting": "giant foxtail; [5]", "value": 100},
      {"measurement": "Foxtail, Giant plant response rating", "setting": "giant foxtail; [6]", "value": 20},
      {"measurement": "Plant response rating, Foxtail, Giant", "setting": "giant foxtail; [7]", "value": 20},
      {"measurement": "Plant response rating, Blackgrass", "setting": "blackgrass; [8]", "value": 10},
      {"measurement": "Blackgrass plant response rating", "setting": "blackgrass; [9]", "value": 0},
      {"measurement": "Plant response rating, Corn", "setting": "corn; [4]", "value": 20},
      {"measurement": "Corn plant response rating", "setting": "corn; [5]", "value": 0},
      {"measurement": "Corn plant response rating", "setting": "corn; [6]", "value": 20},
      {"measurement": "Plant response rating, Corn", "setting": "corn; [7]", "value": 0},
      {"measurement": "Rice plant response rating", "setting": "rice", "value": 60},
      {"measurement": "Plant response rating, Barnyardgrass", "setting": "barnyardgrass [2]; [4]", "value": 20},
      {"measurement": "Barnyardgrass plant response rating", "setting": "barnyardgrass [2]; [5]", "value": 70},
      {"measurement": "Barnyardgrass plant response rating", "setting": "barnyardgrass [2]; [6]", "value": 10},
      {"measurement": "Plant response rating, Barnyardgrass", "setting": "barnyardgrass [2]; [7]", "value": 50},
      {"measurement": "Plant response rating, Crabgrass, Large", "setting": "large crabgrass; [4]", "value": 20},
      {"measurement": "Crabgrass, Large plant response rating", "setting": "large crabgrass; [5]", "value": 100},
      {"measurement": "Crabgrass, Large plant response rating", "setting": "large crabgrass; [6]", "value": 10},
      {"measurement": "Plant response rating, Crabgrass, Large", "setting": "large crabgrass; [7]", "value": 40},
      {"measurement": "Plant response rating, Velvetleaf", "setting": "velvetleaf; [4]", "value": 30},
      {"measurement": "Velvetleaf plant response rating", "setting": "velvetleaf; [5]", "value": 0},
      {"measurement": "Velvetleaf plant response rating", "setting": "velvetleaf; [6]", "value": 20},
      {"measurement": "Plant response rating, Velvetleaf", "setting": "velvetleaf; [7]", "value": 0},
      {"measurement": "Ducksalad plant response rating", "setting": "ducksalad", "value": 50},
      {"measurement": "Sedge, Umbrella plant response rating", "setting": "[3]", "value": 60},
      {"measurement": "Plant response rating, Oat, Wild", "setting": "wild oat; [8]", "value": 30},
      {"measurement": "Oat, Wild plant response rating", "setting": "wild oat; [9]", "value": 30},
      {"measurement": "Plant response rating, Morningglory", "setting": "morningglory; [4]", "value": 10},
      {"measurement": "Morningglory plant response rating", "setting": "morningglory; [5]", "value": 0},
      {"measurement": "Morningglory plant response rating", "setting": "morningglory; [6]", "value": 10},
      {"measurement": "Plant response rating, Morningglory", "setting": "morningglory; [7]", "value": 0}
    ]}
  ]
}
